Source: ChEMBL document CHEMBL5543166, “Development of Benziodarone Analogues with Enhanced Potency for Selective Binding to Transthyretin in Human Plasma” (J Med Chem, 2024)
Values after ≈ are worked out from the molar mass of the structure shown.

Columns and labels:
[1] = pampa, 4 h, 500 µM
[2] = Total clearance in male Sprague-Dawley rat at 0.1 mg/kg, iv measured upto 8 hrs by LC-MS/MS analysis; type: ADME, organism-based; conditions: in vivo
[3] = Solubility of compound at pH 6.8 incubated for 4 hrs by HPLC or LC-MS/MS analysis; type: physicochemical; conditions: buffer, pH 6.8, 4 h
[4] = Cmax in male Sprague-Dawley rat at 0.1 mg/kg, po measured upto 8 hrs by LC-MS/MS analysis; conditions: in vivo
[5] = AUC (0 to 8 hrs) in male Sprague-Dawley rat at 0.1 mg/kg, po measured upto 8 hrs by LC-MS/MS analysis; type: ADME, organism-based; conditions: in vivo
[6] = C0 in male Sprague-Dawley rat at 0.1 mg/kg, iv measured upto 8 hrs by LC-MS/MS analysis; conditions: in vivo
[7] = Solubility of compound at pH 1.2 incubated for 4 hrs by HPLC or LC-MS/MS analysis; type: physicochemical; conditions: buffer, pH 1.2, 4 h
[8] = Tmax in male Sprague-Dawley rat at 0.1 mg/kg, po measured […] by LC-MS/MS analysis; type: ADME, organism-based; conditions: in vivo
[9] = AUC (0 to 8 hrs) in male Sprague-Dawley rat at 0.1 mg/kg, iv measured upto 8 hrs by LC-MS/MS analysis; type: ADME, organism-based; conditions: in vivo
Albumin = Albumin (Homo sapiens, UniProt P02768); test: Binding affinity to serum albumin in human plasma; type: ADME, cell-free
Chain of Albumin (P02768 whole entry): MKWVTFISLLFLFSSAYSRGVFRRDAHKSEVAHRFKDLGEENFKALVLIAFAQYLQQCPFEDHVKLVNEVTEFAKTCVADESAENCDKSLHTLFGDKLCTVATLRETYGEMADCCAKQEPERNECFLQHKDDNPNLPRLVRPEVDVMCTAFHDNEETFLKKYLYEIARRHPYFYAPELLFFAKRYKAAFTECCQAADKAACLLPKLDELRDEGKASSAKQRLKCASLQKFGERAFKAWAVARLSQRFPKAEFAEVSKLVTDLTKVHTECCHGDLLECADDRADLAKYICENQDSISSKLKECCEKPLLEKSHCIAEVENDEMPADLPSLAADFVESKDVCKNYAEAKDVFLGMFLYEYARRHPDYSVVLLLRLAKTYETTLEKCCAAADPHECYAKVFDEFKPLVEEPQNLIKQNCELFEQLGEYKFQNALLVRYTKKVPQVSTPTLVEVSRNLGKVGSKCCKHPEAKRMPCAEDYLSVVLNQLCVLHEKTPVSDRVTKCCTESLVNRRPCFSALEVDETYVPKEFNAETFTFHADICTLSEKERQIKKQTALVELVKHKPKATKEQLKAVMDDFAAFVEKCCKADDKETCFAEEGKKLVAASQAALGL

[10] = Volume of distribution at steady state in male Sprague-Dawley rat at 0.1 mg/kg, iv measured upto 8 hrs by LC-MS/MS analysis; type: ADME, organism-based; conditions: in vivo
[11] = Plasma protein binding in rat assessed as unbound fraction at 1 uM incubated for 6 hrs by LC/MS/MS based equilibrium dialysis method; type: ADME, cell-free
Transthyretin [12] = target: Transthyretin (Homo sapiens, UniProt P02766, V50M); test: Binding affinity to TTR V30M mutant (unknown origin) assessed as dissociation constant by ITC analysis
Transthyretin [13] = target: Transthyretin (Homo sapiens, UniProt P02766); test: Binding affinity to TTR in human plasma assessed as target occupancy incubated for 6 hrs in presence of E)-S-phenyl 3-(4-hydroxy-3,5-dimethyistyryl)benzothioate by fluorescence based competitive binding assay; type: cell-free
[14] = Oral bioavailability in male Sprague-Dawley rat at 0.1 mg/kg measured upto 8 hrs by LC-MS/MS analysis; type: ADME, organism-based; conditions: in vivo

permeability [1]	CL [2] [mL/h/kg]	solubility [3] [µM]	Cmax [4] [ng/mL]	AUC [5] [ng·h/mL]	C0 at 8 h [6] [ng/mL]	solubility [7] [µM]	Tmax [8] [h]	AUC [9] [ng·h/mL]	Activity (Albumin)	Vdss [10] [mL/kg]	Fu [11] [%]	Kd (Transthyretin [12]) [nM]	EC50 (Transthyretin [13]) [µM]	bioavailability [14] [%]	Structure (SMILES)
0.038 10^-6 cm/s	–	–	–	–	–	–	–	–	–	–	–	–	–	–	O=C(O)c1cc(/N=N/c2ccc(S(=O)(=O)Nc3ccccn3)cc2)ccc1O [SULFASALAZINE]
1.8 10^-6 cm/s	–	–	–	–	–	–	–	–	–	–	–	–	–	–	COCCc1ccc(OCC(O)CNC(C)C)cc1 (stereo not given) [METOPROLOL]
–	–	–	–	–	–	–	–	–	Active	–	–	78	8.9	–	CCc1oc2ccccc2c1C(=O)c1cc(I)c(O)c(I)c1 [BENZIODARONE]

The next lines start with the compound.

Structure (SMILES)	permeability [1]	CL [2] [mL/h/kg]	solubility [3] [µM]	Cmax [4] [ng/mL]	AUC [5] [ng·h/mL]	C0 at 8 h [6] [ng/mL]	solubility [7] [µM]	Tmax [8] [h]	AUC [9] [ng·h/mL]	Activity (Albumin)	Vdss [10] [mL/kg]	Fu [11] [%]	Kd (Transthyretin [12]) [nM]	EC50 (Transthyretin [13]) [µM]	bioavailability [14] [%]
CCc1oc2cccc(I)c2c1C(=O)c1cc(I)c(O)c(I)c1	–	24.3	> 100	240	1489	1540	< 0.02	4	2961	Active	153	< 0.01	–	–	–
CCc1oc2cccc(Br)c2c1C(=O)c1cc(I)c(O)c(I)c1	–	20.6	> 100	390	2476	1740	0.054 (≈ 0.0322 µg/mL)	4	3708	–	113	< 0.01	–	–	–
CCc1oc2c(Cl)ccc(Cl)c2c1C(=O)c1cc(I)c(O)c(I)c1	–	39.7	89.5 (≈ 52.5 µg/mL)	77	350	1340	< 0.02	4	1746	–	269	< 0.01	–	–	–
O=C(O)c1ccc2nc(-c3cc(Cl)cc(Cl)c3)oc2c1	–	5.96	–	235	1500	519	–	4	2363	Active	311	–	–	–	63.5
CCc1oc2cccc(Cl)c2c1C(=O)c1cc(I)c(O)c(I)c1	–	20.6	> 100	395	2524	1720	< 0.01	4	3726	–	112	< 0.01	–	–	–
CCc1oc2cccc(C)c2c1C(=O)c1cc(I)c(O)c(I)c1	–	26.4	> 100	303	1918	1640	< 0.01	4	3102	–	123	< 0.01	–	–	–
